Data as given in paper PMC4520450, “Procyanidins Negatively Affect the Activity of the Phosphatases of Regenerating Liver” (PLoS ONE, 2015).

Legend:
Caco-2 cell model = tested on: Caco-2 cell model; set-up: method as in PMID 23885956; conditions: within 24h; cited from earlier work
PTP1B = target: T1, PTP1B (Homo sapiens, UniProt P18031); assay: DiFMUP assay for PTP1B, TCPTP, VHR; format: biochemical; conditions: 12.5 μM, 30 min incubation, 20 μM DiFMUP, 50 nM enzyme
T1 construct: made in house
T1 sequence (P18031 1-435): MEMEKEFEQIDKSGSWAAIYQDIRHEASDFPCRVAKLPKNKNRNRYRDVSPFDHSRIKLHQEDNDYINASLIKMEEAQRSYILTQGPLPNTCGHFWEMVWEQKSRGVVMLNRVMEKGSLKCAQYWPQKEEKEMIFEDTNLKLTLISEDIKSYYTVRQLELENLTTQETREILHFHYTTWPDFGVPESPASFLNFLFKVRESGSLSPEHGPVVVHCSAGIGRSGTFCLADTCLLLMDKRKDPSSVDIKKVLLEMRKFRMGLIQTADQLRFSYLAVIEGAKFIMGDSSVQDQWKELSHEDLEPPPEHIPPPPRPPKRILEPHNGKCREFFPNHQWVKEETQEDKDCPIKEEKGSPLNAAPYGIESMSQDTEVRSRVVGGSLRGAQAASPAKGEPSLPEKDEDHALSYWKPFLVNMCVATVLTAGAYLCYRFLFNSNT
Experimental: (§1) As an extension of our studies we included PTP1B, VHR and TCPTB as examples for phosphotyrosine specific phosphatases in our activity studies, because tea extracts were reported to inhibit PTP1B [43]. For comparison with PRL-3, these proteins were used in the same concentration (50 nM) as PRL-3 and DiFMUP was also used as a substrate in 20 μM concentration. The enzymes were incubated with three different concentrations of procyanidin C2 (9) for 30 min before the measurement.
(§2) Fig 3 Effect of procyanidin C2 (9) on the phosphatase activity of VHR, PTP1B and TCPTP using DiFMUP as a substrate. Proteins were incubated with compound 9 for 30 min., phosphatase activity measurements were performed using 20 μM DiFMUP. Phosphatase activity in the absence of compound 9 was set as 100%. Data represent means ± standard errors of the mean (n = 3).
(§3) DiFMUP assay for PTP1B, TCPTP, VHR: In a final reaction volume of 100 μL the PTPs (50 nM final concentration) were incubated with […] of procyanidin C2 (9) for 30 minutes at 25°C. The buffer conditions were pH 7.2, 4-/2-Hydroxyethyl)-1-piperazineethanesulfonic acid (HEPES) 25 mM, EDTA 2.5 mM, DTT 2.0 mM, NaCl 124.4 mM. After the incubation time 20 μL DiFMUP was added to reach a final concentration of 20 μM. On a Tecan safire2 (Tecan, Salzburg, Austria) plate reader dephosphorylation of the substrate to its fluorescent product was monitored by following the emission at […] for 10 minutes. All measurements were done in triplicates, and the experiments were repeated at least three times. The slopes of the initial phases were obtained by linear regression of the data points. The normalized reaction rates were plotted versus the log of the inhibitor concentrations and the IC50 values were obtained by fitting the curves using the one site competition model of GraphPad Prism (GraphPad Software, Version 5). Due to the high water solubility of 9 DMSO was not required and measurements were done in assay buffer only.

TCPTP = target: T2, TCPTP (Homo sapiens, UniProt P17706); assay: DiFMUP assay for PTP1B, TCPTP, VHR; format: biochemical; conditions: 12.5 μM, 30 min incubation, 20 μM DiFMUP, 50 nM enzyme
T2 construct: made in house
T2 sequence (P17706 1-415): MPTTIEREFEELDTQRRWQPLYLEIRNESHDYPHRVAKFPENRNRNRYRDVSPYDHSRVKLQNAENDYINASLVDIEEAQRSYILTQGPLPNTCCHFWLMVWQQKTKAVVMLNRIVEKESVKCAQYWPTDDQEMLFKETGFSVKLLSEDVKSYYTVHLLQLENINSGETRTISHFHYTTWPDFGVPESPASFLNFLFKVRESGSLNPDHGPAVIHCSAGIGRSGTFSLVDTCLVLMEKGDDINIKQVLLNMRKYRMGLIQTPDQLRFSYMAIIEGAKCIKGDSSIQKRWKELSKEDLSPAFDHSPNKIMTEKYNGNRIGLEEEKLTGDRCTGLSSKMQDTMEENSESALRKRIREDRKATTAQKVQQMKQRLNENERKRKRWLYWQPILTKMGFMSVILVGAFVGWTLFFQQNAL
Experimental: as §1, §2, §3

VHR = target: T3, VHR (Homo sapiens, UniProt P51452); assay: DiFMUP assay for PTP1B, TCPTP, VHR; format: biochemical; conditions: 12.5 μM, 30 min incubation, 20 μM DiFMUP, 50 nM enzyme
T3 construct: made in house
Experimental: as §1, §2, §3

T3 sequence (P51452 whole entry, species assumed): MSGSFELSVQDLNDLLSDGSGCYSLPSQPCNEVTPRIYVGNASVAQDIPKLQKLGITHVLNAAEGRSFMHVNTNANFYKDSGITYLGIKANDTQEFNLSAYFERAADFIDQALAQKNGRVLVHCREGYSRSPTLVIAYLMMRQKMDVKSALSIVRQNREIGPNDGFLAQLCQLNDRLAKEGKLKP

| SMILES | permeation (Caco-2 cell model) | PTP1B phosphatase activity compared to the control (PTP1B) | TCPTP phosphatase activity compared to the control (TCPTP) | VHR phosphatase activity compared to the control (VHR) |
| --- | --- | --- | --- | --- |
| Oc1cc(O)c2c(c1)O[C@H](c1ccc(O)c(O)c1)[C@@H](O)[C@@H]2c1c(O)cc(O)c2c1O[C@H](c1ccc(O)c(O)c1)[C@@H](O)C2 [Procyanidin B3 (8), Procyanidin B3] | up to 0.2% | – | – | – |
| Oc1cc(O)c2c(c1)O[C@H](c1ccc(O)c(O)c1)[C@@H](O)[C@@H]2c1c(O)cc(O)c2c1O[C@H](c1ccc(O)c(O)c1)[C@@H](O)[C@@H]2c1c(O)cc(O)c2c1O[C@H](c1ccc(O)c(O)c1)[C@@H](O)C2 [Procyanidin C2 (9), Procyanidin C2] | – | 75–85% | 75–85% | 75–85% |
